The target of one data set is T1, sickle hemoglobin (HbS) (Homo sapiens, UniProt P68871+P69905, E7V).
T1 construct: from tissue
Description: Solubility assay (Csat assay): solubility of deoxygenated sickle hemoglobin in the presence of drug. In kind it is biochemical. As to the method:
One major assay for evaluating antisickling agents involves measuring their effect on increasing the concentration at which sickle hemoglobin forms a gel. This is called the solubility or Csat assay.
The solubility assay (Csat assay) measures the ability of a compound to increase solubility of sickle hemoglobin (HbS).
In order to confirm the effectiveness of these compounds in reducing the effect of sickle cell anemia, tests were performed. The materials were tested according to the assay (Csat) developed by Hofrichter et al. (J. Hofrichter, P.D. Ross and W. A. Eaton Proc. Natl. Acad. Sci. USA, 73 30-35, 1976). This assay involves deoxygenation of concentrated sickle hemoglobin with dithionite in the presence of different concentrations of the drugs being tested Samples were then sealed in quartz epr tubes under anaerobic conditions and spun at about 150,000 × g for about 21/2 hours at about 35° C. in an ultracentrifuge. This procedure pellets the polymerized HbS (sickle hemoglobin) to the bottom of the tubes and the supernatant (soluble HbS) was measured in the laboratory as the cyanmethemoglobin derivative. […] Activity is reported as a ratio of the HbS solubility with the particular drug to HbS solubility with no drug i.e. control. The higher the ratio the greater degree of activity of the drug. The numbers in parenthesis are % increase in the solubility of HbS; again the higher the number, the greater the activity of the drug. The results ofthe compound of Example 9, is shown as a representative example of the compounds of this invention.

The nature of data set [1]: Tests of transport across erythrocyte membranes. In kind it is in vitro ADME, human. The following applies: red blood cell membrane.
A further data set concerns HbS. As to the kind of experiment: Chromatographic separation: tight covalent binding between HbS and the agent. The arrangement: species or system human.

Where a name gives a salt, the structure may show the parent alone.

For `C=C(CC)C(=O)c1ccc(OCC(=O)NCC(=O)O)c(Cl)c1Cl` [Example 9, N-{[2,3-Dichloro-4-(2-methylenebutyryl)phenoxy]-acetyl}glycine], the activation at 3000 µM at sickle hemoglobin (HbS) (3 mM, read-out: % increase in Solubility (of HbS)) amounted to 27%. For the same molecule, the fold induction at 3000 µM at sickle hemoglobin (HbS) (3 mM, read-out: Ratio of the HbS Solubility with the Drug Compared to HbS Solubility Without Drug) is 1.11. Besides, the activation at 5000 µM on sickle hemoglobin (HbS) (5 mM, read-out: % increase in Solubility (of HbS)) was determined as 36%. Also, on sickle hemoglobin (HbS) (5 mM, read-out: Ratio of the HbS Solubility with the Drug Compared to HbS Solubility Without Drug), the fold induction at 5000 µM is 1.15. On sickle hemoglobin (HbS) (7 mM, read-out: % increase in Solubility (of HbS)), the activation at 7000 µM was found to be 56%. On sickle hemoglobin (HbS) (7 mM, read-out: Ratio of the HbS Solubility with the Drug Compared to HbS Solubility Without Drug), the fold induction at 7000 µM was 1.22. Also, the activation at 9000 µM at sickle hemoglobin (HbS) (9 mM, read-out: % increase in Solubility (of HbS)) turned out to be 82%. The fold induction at 9000 µM on sickle hemoglobin (HbS) (9 mM, read-out: Ratio of the HbS Solubility with the Drug Compared to HbS Solubility Without Drug) is 1.33.
For the molecule `C=C(CC)C(=O)c1ccc(OCC(=O)NCC(=O)O)c(Cl)c1Cl` [sodium salt of N-{([2,3-dichloro-4-(2-methylenebutyryl)-phenoxy]acetyl)}glycine], the “solubility ratio compared with other antisickling agents (in words)” value at sickle hemoglobin (HbS) (low concentrations (5 mM), versus dichlorobenzyloxyacetic and p-bromobenzyloxyacetic acids) was “higher solubility ratio than other antisickling agents, such as, dichlorobenzyloxyacetic and p-bromobenzyloxyacetic acids”. In data set [1], the “transport across erythrocyte membranes (in words)” value is “confirmed the ability of the agent to cross the red blood cell membrane and react with hemoglobin”. In addition, in the data set on HbS, the “covalent binding between the HbS and the therapeutic agent (in words)” value was “desired tight covalent binding between the HbS and the therapeutic agent had occurred”.

For the origin of these results see patent US4699926A, “Compounds useful in treating sickle cell anemia” (Merck & Co., Inc., priority 1986, dated 1987).
